Results from ChEMBL document CHEMBL1201862, “PubChem BioAssay data set” (2004).
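Five compound concentrations were applied to cells in 96-well plates for 48 hours; endpoints were derived by simple linear interpolation of the resulting dose-response curve. Abbreviation: GI50, concentration required for 50% inhibition of growth.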 The source made the active and inactive calls. Rule as the data show it: active = GI50 up to about 1.1 µM and inactive = higher.

Assays:
Assay in all cases: DTP human tumour cell line panel, 48 h
786-0 = system: 786-0
A549 = system: A549
ACHN = system: ACHN
BT-549 = system: BT-549
CCRF-CEM = system: CCRF-CEM
COLO 205 = system: COLO 205
DU-145 = system: DU-145
EKVX = system: EKVX
HCT-116 = system: HCT-116
HCT-15 = system: HCT-15
HL-60 = system: HL-60
HOP-62 = system: HOP-62
HT-29 = system: HT-29
Hs-578T = system: Hs-578T
IGROV-1 = system: IGROV-1
KM12 = system: KM12
LOX IMVI = system: LOX IMVI
M14 = system: M14
MCF7 = system: MCF7
MDA-MB-231 = system: MDA-MB-231
MDA-MB-435 = system: MDA-MB-435
MDA-N = system: MDA-N
NCI-H226 = system: NCI-H226
NCI-H23 = system: NCI-H23
NCI-H460 = system: NCI-H460
NCI-H522 = system: NCI-H522
NCI/ADR-RES = system: NCI/ADR-RES
OVCAR-3 = system: OVCAR-3
OVCAR-4 = system: OVCAR-4
OVCAR-5 = system: OVCAR-5
OVCAR-8 = system: OVCAR-8
PC-3 = system: PC-3
RPMI-8226 = system: RPMI-8226
RXF 393 = system: RXF 393
SF-268 = system: SF-268
SF-295 = system: SF-295
SF-539 = system: SF-539
SK-MEL-28 = system: SK-MEL-28
SK-MEL-2 = system: SK-MEL-2
SK-MEL-5 = system: SK-MEL-5
SK-OV-3 = system: SK-OV-3
SN12C = system: SN12C
SNB-19 = system: SNB-19
SNB-75 = system: SNB-75
SW-620 = system: SW-620
TK-10 = system: TK-10
U-251 = system: U-251
UACC-257 = system: UACC-257
UACC-62 = system: UACC-62
UO-31 = system: UO-31
A498 = system: A498
CAKI-1 = system: CAKI-1
HCC 2998 = system: HCC 2998
HOP-92 = system: HOP-92
K562 = system: K562
MOLT-4 = system: MOLT-4
Malme-3M = system: Malme-3M
SR = system: SR
T47D = system: T47D

O=C(/C=C/c1ccc(O)c([N+](=O)[O-])c1)CC(=O)/C=C/c1ccc(O)c([N+](=O)[O-])c1
GI50 (786-0): > 100 µM (inactive)
GI50 (A549): 53.7 µM (inactive)
GI50 (ACHN): > 100 µM (inactive)
GI50 (BT-549): > 100 µM (inactive)
GI50 (CCRF-CEM): 30.5 µM (inactive)
GI50 (COLO 205): 47.4 µM (inactive)
GI50 (DU-145): 28.4 µM (inactive)
GI50 (EKVX): 50.9 µM (inactive)
GI50 (HCT-116): 41.6 µM (inactive)
GI50 (HCT-15): 38.5 µM
GI50 (HL-60): 21.7 µM (inactive)
GI50 (HOP-62): 48.9 µM (inactive)
GI50 (HT-29): 42.7 µM (inactive)
GI50 (Hs-578T): > 100 µM (inactive)
GI50 (IGROV-1): 24.9 µM (inactive)
GI50 (KM12): 30.5 µM (inactive)
GI50 (LOX IMVI): 14.4 µM (inactive)
GI50 (M14): 65.8 µM (inactive)
GI50 (MCF7): 53.5 µM (inactive)
GI50 (MDA-MB-231): 23.4 µM (inactive)
GI50 (MDA-MB-435): 36.1 µM (inactive)
GI50 (MDA-N): 86.5 µM (inactive)
GI50 (NCI-H226): > 100 µM (inactive)
GI50 (NCI-H23): 34.8 µM (inactive)
GI50 (NCI-H460): 30.5 µM (inactive)
GI50 (NCI-H522): 36.3 µM (inactive)
GI50 (NCI/ADR-RES): 35.3 µM (inactive)
GI50 (OVCAR-3): 26.6 µM (inactive)
GI50 (OVCAR-4): 79.3 µM (inactive)
GI50 (OVCAR-5): 44.9 µM (inactive)
GI50 (OVCAR-8): 19.8 µM (inactive)
GI50 (PC-3): 56.4 µM (inactive)
GI50 (RPMI-8226): 14.4 µM (inactive)
GI50 (RXF 393): 44.4 µM (inactive)
GI50 (SF-268): 54.6 µM (inactive)
GI50 (SF-295): 62.5 µM (inactive)
GI50 (SF-539): > 100 µM (inactive)
GI50 (SK-MEL-28): 33.9 µM (inactive)
GI50 (SK-MEL-2): 41.1 µM (inactive)
GI50 (SK-MEL-5): 49.7 µM (inactive)
GI50 (SK-OV-3): 83.2 µM (inactive)
GI50 (SN12C): > 100 µM (inactive)
GI50 (SNB-19): 88.9 µM (inactive)
GI50 (SNB-75): > 100 µM (inactive)
GI50 (SW-620): 37.1 µM (inactive)
GI50 (TK-10): 92.5 µM (inactive)
GI50 (U-251): 21.4 µM (inactive)
GI50 (UACC-257): > 100 µM (inactive)
GI50 (UACC-62): 88.1 µM (inactive)
GI50 (UO-31): > 100 µM (inactive)

O=C(O)CN1C=C(C(=O)c2cc3ccccc3n2S(=O)(=O)c2ccccc2)CCC1
GI50 (786-0): 50.7 µM (inactive)
GI50 (A498): 69.3 µM (inactive)
GI50 (A549): 68.1 µM (inactive)
GI50 (ACHN): 29.6 µM (inactive)
GI50 (BT-549): 83.2 µM (inactive)
GI50 (CAKI-1): > 100 µM (inactive)
GI50 (CCRF-CEM): 30.9 µM (inactive)
GI50 (COLO 205): 20.9 µM (inactive)
GI50 (DU-145): > 100 µM (inactive)
GI50 (EKVX): 54.8 µM (inactive)
GI50 (HCC 2998): 69.7 µM (inactive)
GI50 (HCT-116): 57.3 µM (inactive)
GI50 (HCT-15): 49.2 µM
GI50 (HL-60): 32.2 µM (inactive)
GI50 (HOP-62): > 100 µM (inactive)
GI50 (HOP-92): 46.9 µM (inactive)
GI50 (HT-29): 50 µM (inactive)
GI50 (Hs-578T): 81.3 µM (inactive)
GI50 (IGROV-1): 37.2 µM (inactive)
GI50 (K562): 24.2 µM (inactive)
GI50 (KM12): 37.1 µM (inactive)
GI50 (LOX IMVI): 64.9 µM (inactive)
GI50 (M14): 69.8 µM (inactive)
GI50 (MCF7): 49.9 µM (inactive)
GI50 (MDA-MB-231): > 100 µM (inactive)
GI50 (MDA-MB-435): 43.5 µM (inactive)
GI50 (MOLT-4): 38.5 µM (inactive)
GI50 (Malme-3M): 28.4 µM (inactive)
GI50 (NCI-H226): 46.8 µM (inactive)
GI50 (NCI-H23): 50.6 µM (inactive)
GI50 (NCI-H460): 96.2 µM (inactive)
GI50 (NCI/ADR-RES): 66.1 µM (inactive)
GI50 (OVCAR-3): 51.9 µM (inactive)
GI50 (OVCAR-4): 83.9 µM (inactive)
GI50 (OVCAR-5): > 100 µM (inactive)
GI50 (OVCAR-8): 64.6 µM (inactive)
GI50 (PC-3): 50.4 µM (inactive)
GI50 (RXF 393): 54.5 µM (inactive)
GI50 (SF-268): > 100 µM (inactive)
GI50 (SF-295): 69.5 µM (inactive)
GI50 (SF-539): 39.7 µM (inactive)
GI50 (SK-MEL-28): > 100 µM (inactive)
GI50 (SK-MEL-2): 87.5 µM (inactive)
GI50 (SK-MEL-5): 24.9 µM (inactive)
GI50 (SK-OV-3): > 10 µM (inactive)
GI50 (SNB-19): > 100 µM (inactive)
GI50 (SNB-75): 27.5 µM (inactive)
GI50 (SR): 36.4 µM (inactive)
GI50 (SW-620): 69.2 µM (inactive)
GI50 (T47D): 28.6 µM (inactive)
GI50 (TK-10): > 100 µM (inactive)
GI50 (U-251): 76.7 µM (inactive)
GI50 (UACC-257): > 100 µM (inactive)
GI50 (UACC-62): 83 µM (inactive)
GI50 (UO-31): 30.4 µM (inactive)

C=C1C(=O)O[C@H]2[C@H]3O[C@@H](C[C@@H]12)[C@@]1(C)CC[C@H](O1)[C@H](C)CCC[C@H]3C
GI50 (786-0): 1.31 µM (inactive)
GI50 (A498): 1.71 µM (inactive)
GI50 (A549): 2.16 µM (inactive)
GI50 (ACHN): 1.51 µM (inactive)
GI50 (BT-549): 0.811 µM (active)
GI50 (CAKI-1): 1.28 µM (inactive)
GI50 (CCRF-CEM): 0.399 µM (active)
GI50 (COLO 205): 1.75 µM (inactive)
GI50 (DU-145): 1.52 µM (inactive)
GI50 (EKVX): 1.44 µM (inactive)
GI50 (HCC 2998): 1.28 µM (inactive)
GI50 (HCT-116): 1.04 µM (active)
GI50 (HCT-15): 1.81 µM
GI50 (HL-60): 0.237 µM (active)
GI50 (HOP-62): 4.74 µM (inactive)
GI50 (HOP-92): 1.43 µM (inactive)
GI50 (HT-29): 1.29 µM (inactive)
GI50 (Hs-578T): 2.64 µM (inactive)
GI50 (IGROV-1): 1.19 µM (inactive)
GI50 (K562): 1.44 µM (inactive)
GI50 (KM12): 2.18 µM (inactive)
GI50 (LOX IMVI): 1.55 µM (inactive)
GI50 (MCF7): 1.77 µM (inactive)
GI50 (MDA-MB-231): 1.65 µM (inactive)
GI50 (MDA-MB-435): 1.32 µM (inactive)
GI50 (MOLT-4): 1.23 µM (inactive)
GI50 (Malme-3M): 1.72 µM (inactive)
GI50 (NCI-H226): 1.53 µM (inactive)
GI50 (NCI-H23): 1.75 µM (inactive)
GI50 (NCI-H460): 1.76 µM (inactive)
GI50 (NCI-H522): 1.42 µM (inactive)
GI50 (NCI/ADR-RES): 1.53 µM (inactive)
GI50 (OVCAR-3): 1.1 µM (active)
GI50 (OVCAR-4): 1.58 µM (inactive)
GI50 (OVCAR-5): 1.67 µM (inactive)
GI50 (OVCAR-8): 1.38 µM (inactive)
GI50 (PC-3): 1.61 µM (inactive)
GI50 (RPMI-8226): 0.512 µM (active)
GI50 (RXF 393): 2.15 µM (inactive)
GI50 (SF-268): 1.67 µM (inactive)
GI50 (SF-295): 4.82 µM (inactive)
GI50 (SK-MEL-28): 1.63 µM (inactive)
GI50 (SK-MEL-2): 2.09 µM (inactive)
GI50 (SK-MEL-5): 1.42 µM (inactive)
GI50 (SK-OV-3): 7.38 µM (inactive)
GI50 (SN12C): 2.22 µM (inactive)
GI50 (SNB-19): 10.1 µM (inactive)
GI50 (SNB-75): 1.63 µM (inactive)
GI50 (SR): 0.148 µM (active)
GI50 (SW-620): 1.46 µM (inactive)
GI50 (T47D): 2.21 µM (inactive)
GI50 (TK-10): 1.62 µM (inactive)
GI50 (U-251): 1.5 µM (inactive)
GI50 (UACC-257): 1.91 µM (inactive)
GI50 (UACC-62): 1.81 µM (inactive)
GI50 (UO-31): 1.56 µM (inactive)
